{
  "source": "paper PMC4920026",
  "about": "(Scientific Reports, 2016)",
  "biological_target": "huPrP(23–230) (Homo sapiens, UniProt P04156)",
  "format": "binding",
  "settings": "for k2 (microscopic association constant of xenon to the open state): k1 = 0, pH 4.5",
  "note": "Where two headings read alike, the source gives them in different places.",
  "data": [
    {"smiles": "[Xe]", "note": "[xenon]", "values": [
      {"measurement": "ΔG24 (free energy of xenon binding to the open state)", "setting": "binding site A1, 293 K", "result": "-19.7 ± 0.3", "unit": "kJ/M"},
      {"measurement": "Kd", "setting": "binding site A1, Kapp = 1/k2 + k3/k2, 293 K, read-out: Kapp Xe (apparent xenon dissociation constant)", "result": 12.5, "unit": "mM"},
      {"measurement": "k2 (microscopic association constant of xenon to the open state)", "setting": "binding site A1, 293 K", "result": "3.2 ± 0.4", "unit": "mM⁻¹"},
      {"measurement": "ΔG24 (free energy of xenon binding to the open state)", "setting": "binding site A2, 293 K", "result": "-14.91 ± 0.03", "unit": "kJ/M"},
      {"measurement": "Kd", "setting": "binding site A2, Kapp = 1/k2 + k3/k2, 293 K, read-out: Kapp Xe (apparent xenon dissociation constant)", "result": 14.6, "unit": "mM"},
      {"measurement": "k2 (microscopic association constant of xenon to the open state)", "setting": "binding site A2, 293 K", "result": "0.46 ± 0.01", "unit": "mM⁻¹"},
      {"measurement": "ΔG24 (free energy of xenon binding to the open state)", "setting": "binding site B, 293 K", "result": "-20.5 ± 0.2", "unit": "kJ/M"},
      {"measurement": "Kd", "setting": "binding site B, Kapp = 1/k2 + k3/k2, 293 K, read-out: Kapp Xe (apparent xenon dissociation constant)", "result": 9.1, "unit": "mM"},
      {"measurement": "k2 (microscopic association constant of xenon to the open state)", "setting": "binding site B, 293 K, k3 set to 39", "result": "4.5 ± 0.4", "unit": "mM⁻¹"},
      {"measurement": "ΔG24 (free energy of xenon binding to the open state)", "setting": "binding site C, 293 K", "result": "-11.5 ± 0.7", "unit": "kJ/M"},
      {"measurement": "Kd", "setting": "binding site C, Kapp = 1/k2 + k3/k2, 293 K, read-out: Kapp Xe (apparent xenon dissociation constant)", "result": 11.4, "unit": "mM"},
      {"measurement": "k2 (microscopic association constant of xenon to the open state)", "setting": "binding site C, 293 K", "result": "0.11 ± 0.03", "unit": "mM⁻¹"},
      {"measurement": "ΔG24 (free energy of xenon binding to the open state)", "setting": "binding site D, 293 K", "result": "-14.24 ± 0.02", "unit": "kJ/M"},
      {"measurement": "Kd", "setting": "binding site D, Kapp = 1/k2 + k3/k2, 293 K, read-out: Kapp Xe (apparent xenon dissociation constant)", "result": 11.8, "unit": "mM"},
      {"measurement": "k2 (microscopic association constant of xenon to the open state)", "setting": "binding site D, 293 K", "result": "0.34 ± 0.02", "unit": "mM⁻¹"},
      {"measurement": "apparent xenon affinities k2/(1 + k3)", "setting": "order of magnitude, over all cavities", "result": "~0.1", "unit": "mM⁻¹"},
      {"measurement": "Kd", "setting": "order of magnitude, over all cavities, read-out: apparent dissociation constants", "result": "~10", "unit": "mM"}
    ]}
  ]
}
